In PubChem BioAssay (NCI):
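Method: 48-hour compound exposure of cells in 96-well plates, five concentrations, linear interpolation of endpoints. GI50 marks 50% less growth. The concentration for full growth arrest is given as TGI.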

How the values were obtained:
Assay in all cases: growth of human tumour cells (NCI), 48 h
[1] = tested on: 786-0 renal
[2] = tested on: A498 renal
[3] = tested on: A549 NSCLC
[4] = tested on: ACHN renal
[5] = tested on: CAKI-1 renal
[6] = tested on: COLO 205 colon
[7] = tested on: DLD-1 colon
[8] = tested on: DMS 114 small cell lung
[9] = tested on: DMS 273 small cell lung
[10] = tested on: EKVX NSCLC
[11] = tested on: HCC-2998 colon
[12] = tested on: HCT-116 colon
[13] = tested on: HCT-15 colon
[14] = tested on: HL-60(TB) leukemia
[15] = tested on: HOP-18 NSCLC
[16] = tested on: HOP-62 NSCLC
[17] = tested on: HOP-92 NSCLC
[18] = tested on: HT29 colon
[19] = tested on: IGROV1 ovarian
[20] = tested on: K-562 leukemia
[21] = tested on: KM12 colon
[22] = tested on: KM20L2 colon
[23] = tested on: LOX IMVI melanoma
[24] = tested on: LXFL 529 NSCLC
[25] = tested on: M14 melanoma
[26] = tested on: M19-MEL melanoma
[27] = tested on: MALME-3M melanoma
[28] = tested on: MOLT-4 leukemia
[29] = tested on: NCI-H226 lung
[30] = tested on: NCI-H23 lung
[31] = tested on: NCI-H460 lung
[32] = tested on: NCI-H522 lung
[33] = tested on: OVCAR-3 ovarian
[34] = tested on: OVCAR-4 ovarian
[35] = tested on: OVCAR-8 ovarian
[36] = tested on: RPMI-8226 leukemia
[37] = tested on: RXF 393 renal
[38] = tested on: RXF-631 renal
[39] = tested on: SF-295 CNS
[40] = tested on: SF-539 CNS
[41] = tested on: SK-MEL-2 melanoma
[42] = tested on: SK-MEL-28 melanoma
[43] = tested on: SK-MEL-5 melanoma
[44] = tested on: SK-OV-3 ovarian
[45] = tested on: SN12C renal
[46] = tested on: SNB-19 CNS
[47] = tested on: SNB-75 CNS
[48] = tested on: SW-620 colon
[49] = tested on: U251 CNS
[50] = tested on: UACC-62 melanoma
[51] = tested on: XF 498 CNS
[52] = tested on: CCRF-CEM leukemia
[53] = tested on: OVCAR-5 ovarian
[54] = tested on: SF-268 CNS
[55] = tested on: SNB-78 CNS
[56] = tested on: TK-10 renal
[57] = tested on: UACC-257 melanoma
[58] = tested on: UO-31 renal

CCOC(=O)C(=Cc1cc(OC)ccc1OC)C(=O)OCC
TGI [1]: 14100 nM | TGI [2]: 28500 nM | TGI [3]: 26900 nM | TGI [4]: 31800 nM | TGI [5]: 28100 nM | TGI [6]: 17200 nM | TGI [7]: 21800 nM | TGI [8]: 11800 nM | TGI [9]: 14200 nM | TGI [10]: 31300 nM | TGI [11]: 34800 nM | TGI [12]: 27500 nM | TGI [13]: 22000 nM | TGI [14]: 6120 nM | TGI [15]: 23600 nM | TGI [16]: 23600 nM | TGI [17]: 17000 nM | TGI [18]: 17000 nM | TGI [19]: 58500 nM | TGI [20]: 27400 nM | TGI [21]: 19900 nM | TGI [22]: 17500 nM | TGI [23]: 19500 nM | TGI [24]: 12200 nM | TGI [25]: 24200 nM | TGI [26]: 17900 nM | TGI [27]: 25500 nM | TGI [28]: 37900 nM | TGI [29]: 27000 nM | TGI [30]: 10900 nM | TGI [31]: > 100000 nM | TGI [32]: 14400 nM | TGI [33]: 22500 nM | TGI [34]: 21600 nM | TGI [35]: 20900 nM | TGI [36]: 10900 nM | TGI [37]: 6200 nM | TGI [38]: 32500 nM | TGI [39]: 26500 nM | TGI [40]: 15100 nM | TGI [41]: 18100 nM | TGI [42]: 17100 nM | TGI [43]: 17200 nM | TGI [44]: 29900 nM | TGI [45]: 26300 nM | TGI [46]: 25000 nM | TGI [47]: 5950 nM | TGI [48]: 14000 nM | TGI [49]: 20000 nM | TGI [50]: 6130 nM | TGI [51]: 23600 nM

CCC[CH2][Sn]([CH2]CCC)([O]C(=O)c1cc(OC)c(OC)cc1OC)[O]C(=O)c1cc(OC)c(OC)cc1OC
GI50 [1]: 1410 nM | TGI [1]: 2780 nM | GI50 [2]: 1480 nM | TGI [2]: 3210 nM | GI50 [3]: 5140 nM | TGI [3]: 18300 nM | GI50 [4]: 1620 nM | TGI [4]: 3000 nM | GI50 [5]: 419 nM | TGI [5]: 1630 nM | GI50 [52]: 295 nM | TGI [52]: 1110 nM | GI50 [6]: 1250 nM | TGI [6]: 2600 nM | GI50 [7]: 1510 nM | TGI [7]: 2920 nM | GI50 [8]: 492 nM | TGI [8]: 1950 nM | GI50 [9]: 1550 nM | TGI [9]: 3370 nM | GI50 [10]: 1640 nM | TGI [10]: 4830 nM | GI50 [12]: 1510 nM | TGI [12]: 2850 nM | GI50 [13]: 1260 nM | TGI [13]: 2920 nM | GI50 [16]: 2350 nM | TGI [16]: 4410 nM | GI50 [18]: 1960 nM | TGI [18]: 4670 nM | GI50 [19]: 1430 nM | TGI [19]: 2960 nM | GI50 [20]: 324 nM | TGI [20]: 2970 nM | GI50 [21]: 1750 nM | TGI [21]: 4070 nM | GI50 [23]: 1040 nM | TGI [23]: 3340 nM | GI50 [24]: 346 nM | TGI [24]: 1220 nM | GI50 [25]: 1510 nM | TGI [25]: 2990 nM | GI50 [26]: 1030 nM | TGI [26]: 2360 nM | GI50 [27]: 793 nM | TGI [27]: 2080 nM | GI50 [28]: 747 nM | TGI [28]: 6430 nM | GI50 [29]: 2210 nM | TGI [29]: 8260 nM | GI50 [30]: 674 nM | TGI [30]: 1960 nM | GI50 [31]: 3080 nM | TGI [31]: 12100 nM | GI50 [32]: 373 nM | TGI [32]: 1140 nM | GI50 [33]: 1300 nM | TGI [33]: 2860 nM | GI50 [34]: 1900 nM | TGI [34]: 4310 nM | GI50 [53]: 2270 nM | TGI [53]: 4330 nM | GI50 [35]: 1480 nM | TGI [35]: 3030 nM | GI50 [36]: 499 nM | TGI [36]: 2960 nM | GI50 [37]: 327 nM | TGI [37]: 1470 nM | GI50 [38]: 1370 nM | TGI [38]: 2930 nM | GI50 [54]: 1230 nM | TGI [54]: 2540 nM | GI50 [39]: 2280 nM | TGI [39]: 5880 nM | GI50 [40]: 1020 nM | TGI [40]: 2230 nM | GI50 [41]: 1260 nM | TGI [41]: 2540 nM | GI50 [42]: 971 nM | TGI [42]: 2230 nM | GI50 [43]: 1600 nM | TGI [43]: 3180 nM | GI50 [44]: 2140 nM | TGI [44]: 5510 nM | GI50 [45]: 1520 nM | TGI [45]: 3290 nM | GI50 [46]: 626 nM | TGI [46]: 1820 nM | GI50 [47]: 402 nM | TGI [47]: 1530 nM | GI50 [55]: 680 nM | TGI [55]: 2410 nM | GI50 [48]: 1130 nM | TGI [48]: 2830 nM | GI50 [56]: 1500 nM | TGI [56]: 2840 nM | GI50 [49]: 1350 nM | TGI [49]: 2660 nM | GI50 [57]: 1290 nM | TGI [57]: 3310 nM | GI50 [50]: 1120 nM | TGI [50]: 2370 nM | GI50 [58]: 1570 nM | TGI [58]: 2920 nM | GI50 [51]: 767 nM | TGI [51]: 2160 nM
